Here are results for 32 compounds from the Deep4Chem optical property database.

The series is described as follows: solvent given as SMILES.
Setting [1] is: in O=P(c1ccccc1)(c1ccccc1)c1ccccc1Oc1ccccc1P(=O)(c1ccccc1)c1ccccc1.

As to `O=c1c2ccccc2[nH]c2ccccc12`, where the note is “in CS(C)=O”, the fluorescence lifetime was determined as 9.1 ns.
Consider `COC(=O)C(Cc1ccc2oc(-c3ccc4c(c3)c3ccccc3n4-c3ccccc3)nc2c1)NC(=O)OC(C)(C)C` (stereo not given), for which the fluorescence lifetime was 2.29 ns (in C1CCCCC1); 1.73 ns (in C1CCOC1); 1.96 ns (in C1COCCO1); 1.83 ns (in CC1CCCO1); 1.83 ns (in CC1COC(=O)O1); 1.77 ns (in CC#N). For the same compound, the fluorescence lifetime by setting is: (in CC(C)=O) 1.75 ns; (in CC(C)CC(C)(C)C) 2.22 ns; (in CC(C)CO) 1.55 ns; (in CC(C)O) 1.57 ns; (in CC(C)OC(C)C) 1.66 ns; (in CC(O)CO) 1.74 ns. For the same compound, the fluorescence lifetime runs as follows: (in CCC(C)CC) 2.25 ns; (in CCCCC) 2.66 ns; (in CCCCCC) 2.23 ns; (in CCCCCCCCC) 2.3 ns; (in CCCCCCCCCC) 2.33 ns; (in CCCCCCCO) 1.55 ns. This compound also displayed a fluorescence lifetime (in CCCCCCO) of 1.56 ns; a fluorescence lifetime (in CCCCCO) of 1.54 ns; a fluorescence lifetime (in CCCCO) of 1.54 ns; a fluorescence lifetime (in CCO) of 1.66 ns; a fluorescence lifetime (in CCOC(C)=O) of 1.87 ns; a fluorescence lifetime (in CCOCC) of 2.13 ns. Also, the fluorescence lifetime by setting is: (in CN(C)C=O) 1.73 ns; (in CO) 1.72 ns; (in COCCOC) 1.2 ns; (in CS(C)=O) 1.69 ns; (in Cc1ccccc1) 1.66 ns; (in Cc1ccccc1C) 1.76 ns. Also, the fluorescence lifetime (in ClC(Cl)Cl) was determined as 1.32 ns; the fluorescence lifetime (in ClCCl) worked out at 1.5 ns; the fluorescence lifetime (in NC=O) was found to be 1.86 ns; the fluorescence lifetime (in OC1CCCCC1) was found to be 1.58 ns; the fluorescence lifetime (in OCCO) worked out at 1.84 ns; the fluorescence lifetime (in c1ccccc1) was determined as 1.67 ns.
Compound `N#CC1=c2c3cccc4c(Br)ccc(c43)n2[B-](F)(F)[n+]2ccccc21` showed a fluorescence lifetime (in ClCCl) of 7.8 ns.
`CC(C)(C)c1ccc2c(c1)sc1[n+]2[B-](F)(F)n2c(c3cccc4c(Br)ccc2c43)=N1` registered a fluorescence lifetime (in ClCCl) of 5 ns.
For the compound `F[B-]1(F)Oc2ccccc2-c2cc(-n3c4ccc(-c5ccccc5)cc4c4cc(-c5ccccc5)ccc43)cc[n+]21`, the fluorescence lifetime under setting [1] was 6.3 ns.
In the case of `COc1ccc(-c2c3cc4ccccc4cc3c(-c3ccc(OC)cc3)c3cc4ccccc4cc23)cc1`, the fluorescence lifetime (in ClCCl) worked out at 7.8 ns.
On to `CC1=CC(C)=[N+]2C1=C(c1ccc(I)cc1)c1c(C)cc(C)n1[B-]2(Oc1ccccc1)Oc1ccccc1`, for which the fluorescence lifetime (in ClC(Cl)Cl) amounted to 0.38 ns.
For `N#Cc1ccc(/C=C2\OC(=O)c3cc(N)ccc32)cc1`, the fluorescence lifetime was 0.51 ns (in CC#N); 0.54 ns (in CC(C)=O); 2.4 ns (in CC(C)CO); 2.2 ns (in CCO); 0.75 ns (in CCOC(C)=O); 2.67 ns (in CO).
`CN(C)c1ccc(C2=Nc3scc(-c4ccccc4)[n+]3[B-](F)(F)O2)cc1` displayed a fluorescence lifetime (in C1CCOC1) of 2.06 ns.
For the compound `Cc1cc(-c2ccccc2)cc(C)[o+]1`, the fluorescence lifetime (in CC#N) worked out at 12.1 ns and the fluorescence lifetime (in ClCCl) came out at 0.78 ns.
For the compound `O=C(c1ccc(-n2c3ccccc3c3cc(-n4c5ccccc5c5ccccc54)ccc32)cc1)c1ccc(-n2c3ccccc3c3cc(-n4c5ccccc5c5ccccc54)ccc32)cn1`, the fluorescence lifetime under setting [1] was determined as 62 ns.
For `CNc1cccc2c1C(=O)c1ccccc1-2`, the fluorescence lifetime reads like this: (in C1CCCCC1) 1.6 ns; (in CC#N) 4.2 ns; (in CCO) 2.8 ns; (in c1ccccc1) 2.8 ns.
In turn, `c1ccc(-c2ccc(-c3nc(-n4c5ccccc5c5ccc6c7ccccc7n(-c7ccccc7)c6c54)nc(-n4c5ccccc5c5ccc6c7ccccc7n(-c7ccccc7)c6c54)n3)cc2)cc1` gave a fluorescence lifetime (in Cc1ccccc1) of 8.7 ns.
On to `CC1(C)c2ccccc2N(c2ccc(-c3cnc(C#N)nc3)cc2)c2ccccc21`, for which the fluorescence lifetime (in N#Cc1ccc2c(c1)c1ccccc1n2-c1cccc(-n2c3ccccc3c3ccccc32)c1) stood at 15.7 ns.
Under “in ClC(Cl)Cl”, `Cc1ccc(C#Cc2ccc(C#Cc3ccc(C#Cc4ccccc4C#N)cc3C#N)cc2C#N)cc1` displayed a fluorescence lifetime of 1.23 ns.
As to `CCCCC(CC)CN1C(=O)c2cc(Oc3ccc(C(C)(C)C)cc3)c3c4c(Cl)cc5c6c(cc(Cl)c(c7c(Oc8ccc(C(C)(C)C)cc8)cc(c2c37)C1=O)c64)C(=O)N(c1c(C(C)C)cccc1C(C)C)C5=O` (stereo not given), for the setting “in Cc1ccccc1”, the fluorescence lifetime was 6.73 ns.
As to `N#Cc1cc(-c2ccc(F)cc2)cnc1O`, the fluorescence lifetime was 5.22 ns (in CC#N), 5.23 ns (in CO) and 5.38 ns (in O).
As for `CC1=CC(C)=[N+]2C1=C(c1ccc(I)cc1)c1c(C)cc(C)n1[B-]2(F)F`, for the setting “in ClC(Cl)Cl”, the fluorescence lifetime stood at 3.11 ns.
In the case of `CCN(CC)c1ccc(/C=C/c2ccc(-c3ccc(/C=C/c4ccc(N(CC)CC)cc4)s3)s2)cc1`, the fluorescence lifetime (in C1CCOC1) was 1.1 ns; the fluorescence lifetime (in CC#N) turned out to be 1.14 ns; the fluorescence lifetime (in CC(C)=O) was determined as 1.11 ns; the fluorescence lifetime (in CN(C)C=O) was 1.18 ns; the fluorescence lifetime (in Cc1ccccc1) came out at 1.02 ns.
For `Cc1sc(-c2ccc(-c3nc(-c4ccccc4)c(-c4ccccc4)[nH]3)cc2)c(C)c1C1=C(c2c(C)n(C)c3ccccc23)C(F)(F)C(F)(F)C1(F)F`, the fluorescence lifetime (in C1CCOC1) was determined as 0.48 ns.
On to `O=Cc1ccc(C2=C3C=c4c(oc5ccccc45)=[N+]3[B-](F)(F)n3c2cc2c4ccccc4oc23)cc1`, for which the fluorescence lifetime worked out at 2.47 ns (in C1CCCCC1); 2.09 ns (in C1CCOC1); 2.38 ns (in CC#N); 2.12 ns (in CCOC(C)=O); 2.3 ns (in CN(C)C=O); 2.73 ns (in CO). In addition, the fluorescence lifetime by setting is: (in Cc1ccccc1) 2.44 ns; (in ClCCl) 2.49 ns.
Where the note is “in ClC(Cl)Cl”, `COc1ccc2cc(-c3ccccc3CC#N)c(=O)oc2c1` showed a fluorescence lifetime of 2.4 ns.
Take `COc1cc2cc(OC)c(-c3ccc([N+](=O)[O-])cc3)cc2cc1-c1ccc([N+](=O)[O-])cc1`: the fluorescence lifetime (in ClC(Cl)Cl) is 0.62 ns and the fluorescence lifetime (in ClCCl) stood at 0.53 ns.
As for `O=C(O)CCCc1cc2ccc3cccc4ccc(c1)c2c34`, under “in CO”, the fluorescence lifetime came out at 622 ns.
`CC(C)(C)c1ccc(-c2c3cccc4c(-c5ccccc5)cc5c(-c6ccc(C(C)(C)C)cc6)c6cccc7c(-c8ccccc8)cc2c(c76)c5c43)cc1`: the fluorescence lifetime (in ClCCl) turned out to be 2.98 ns.
`C(#Cc1cc2ccc3cccc4ccc(c1)c2c34)c1ccccc1` showed a fluorescence lifetime (in Cc1ccccc1) of 71 ns.
For the setting “in C1CCOC1”, `CN(C)c1ccc(C2=Nc3scc(-c4ccc(C#N)cc4)[n+]3[B-](F)(F)O2)cc1` came in with a fluorescence lifetime of 1.69 ns.
As to `CCOC(=O)c1ccc2c(c1)sc1c3ccc(C(=O)OCC)cc3sc21`, the fluorescence lifetime (in CCCO) was found to be 0.35 ns.
`c1ccc(-c2ccc(-c3ccc(-c4cc(-c5ccc(-c6ccc(-c7ccccc7)cc6)cc5)cc(-c5ccc(-c6ccc(-c7ccccc7)cc6)cc5)c4)cc3)cc2)cc1` had a fluorescence lifetime (in C1COCCO1) of 1.05 ns.
Regarding `CC1=CC(/C=C/c2ccc([N+](C)(C)C)cc2)=[N+]2C1=C(c1ccc(I)cc1)c1c(C)cc(/C=C/c3ccc([N+](C)(C)C)cc3)n1[B-]2(F)F`, the fluorescence lifetime (in CC#N) was determined as 5.1 ns.
For `COc1ccc(C#Cc2c3ccccc3c(C#Cc3ccc(OC)cc3)c3cc4ccccc4cc23)cc1`, the fluorescence lifetime (in ClCCl) worked out at 7 ns.
The compound `COc1cc2c(cc1-c1ccsc1)Cc1c3c(c4c(c1-2)-c1cc(OC)c(-c2ccsc2)cc1C4)C(=O)N(CCC(C)C)C3=O` gave a fluorescence lifetime (in C1CCOC1) of 3.42 ns.
